Measured values published in ChEMBL document CHEMBL3856260, “A synergistic antitumor effect of polyphyllin I and formosanin C on hepatocarcinoma cells” (Bioorg Med Chem Lett, 2016).
Active and inactive are the calls of the source. No cut-off for these calls is given here.

How the values were obtained:
HepG2 [1] = test: Decrease in CDK2 level in human HepG2 cells at 1 uM incubated for 24 hrs by Western blot analysis in presence of polyphyllin relative to relative to polyphyllin I alone treatment; format: functional, cell-based
[2] = Cytotoxicity against human Bel7402 cells assessed as combination index at ED30 using 1:1 compound to polyphyllin I incubated for 24 hrs by MTT assay; format: functional, Bel-7402
HepG2 [3] = test: Change in PCNA mRNA level in human HepG2 cells at 1 uM incubated for 24 hrs by RT-PCR analysis in presence of polyphyllin I relative to formosanin C alone treatment; format: functional, cell-based
[4] = Cytotoxicity against human Bel7402 cells assessed as combination index at ED90 using 1:1 compound to polyphyllin I incubated for 24 hrs by MTT assay; format: functional, Bel-7402
HepG2 [5] = test: Decrease in CDK2 level in human HepG2 cells at 1 uM incubated for 24 hrs by Western blot analysis in presence of polyphyllin I; format: functional, cell-based
HepG2 [6] = test: Induction mitochondrial membrane potential changes in human HepG2 cells at 1 uM after 24 hrs by rhodamine 123 staining-based flow cytometry (reference value: 23.8+/-2.3%); format: functional
[7] = Cytotoxicity against human Bel7402 cells after 24 hrs by MTT assay; format: functional, cell-based; settings: Bel-7402, 24 h
HepG2 [8] = test: Induction of nuclear fragmentation in human HepG2 cells at 0.5 uM after 24 hrs by Hoechst 33258 staining-based fluorescence microscopic analysis in presence of polyphyllin I; format: functional, cell-based
[9] = Cytotoxicity against human Bel7402 cells assessed as combination index at ED75 using 1:1 compound to polyphyllin I incubated for 24 hrs by MTT assay; format: functional, Bel-7402
HepG2 [10] = test: Induction of apoptosis in human HepG2 cells assessed as downregulation of Bcl2 mRNA level at 1 uM incubated for 24 hrs by RT-PCR analysis in presence of polyphyllin I; format: functional, cell-based
[11] = Cell cycle arrest in human HepG2 cells assessed as accumulation at G2 phase at 1 uM after 24 hrs by propidium iodide staining-based flow cytometry in presence of PPI (reference value: 2.04%); format: functional
[12] = Cell cycle arrest in human HepG2 cells assessed as accumulation at S phase at 1 uM after 24 hrs by […] staining-based flow cytometry in presence of PPI (reference value: 42.33%); format: functional
[13] = Cytotoxicity against human HepG2 cells assessed as combination index at ED50 using 1:1 compound to polyphyllin I incubated for 24 hrs by MTT assay; format: functional
[14] = Induction of apoptosis in human HepG2 cells assessed as upregulation of caspase3 mRNA level at 1 uM incubated for 24 hrs by RT-PCR analysis in presence of polyphyllin I; format: functional, cell-based
HepG2 [15] = test: Increase in p21 mRNA level in human HepG2 cells at 1 uM incubated for 24 hrs by RT-PCR analysis in presence of polyphyllin I relative to formosanin C alone treatment; format: functional, cell-based
HepG2 [16] = test: Induction of apoptosis in human HepG2 cells assessed as downregulation of NF-kappaB […] level at 1 uM incubated for 24 hrs by RT-PCR analysis in presence of polyphyllin I; format: functional, cell-based
[17] = Suppression of MMP9 expression in human HepG2 cells assessed as reduction in enzyme activity at 1 uM after 24 hrs by zymographic analysis in presence of polyphyllin I; format: functional, cell-based
[18] = Induction of apoptosis in human HepG2 cells assessed as upregulation of caspase3 level at 1 uM incubated for 24 hrs by Western blot analysis in presence of polyphyllin I; format: functional, cell-based
[19] = Cell cycle arrest in human HepG2 cells assessed as accumulation at G1 phase at 1 uM after 24 hrs by propidium iodide staining-based flow cytometry in presence of PPI (reference value: 55.62%); format: functional
HepG2 [20] = test: Change in PCNA mRNA level in human HepG2 cells at 1 uM incubated for 24 hrs by RT-PCR analysis in presence of polyphyllin I relative to polyphyllin I alone treatment; format: functional, cell-based
HepG2 [21] = test: Induction of Bax translocation from cytosol to mitochondria in human HepG2 cells by Western blot analysis in presence of polyphyllin I; format: functional, cell-based
[22] = Cytotoxicity against human HepG2 cells assessed as combination index at ED90 using 1:1 compound to polyphyllin I incubated for 24 hrs by MTT assay; format: functional
[23] = Suppression of MMP9 expression in human HepG2 cells at 1 uM after 24 hrs by Western blot analysis in presence of polyphyllin I; format: functional, cell-based
HepG2 [24] = test: Induction of apoptosis in human HepG2 cells at 1 uM after 24 hrs by propidium iodide staining-based flow cytometry in presence of PPI (reference value: 3.01%); format: functional
[25] = Induction of apoptosis in human HepG2 cells assessed as upregulation of Bax level at 1 uM incubated for 24 hrs by Western blot analysis in presence of polyphyllin I; format: functional, cell-based
[26] = Cytotoxicity against human HepG2 cells after 24 hrs by MTT assay; format: functional, cell-based; settings: HepG2, 24 h
HepG2 [27] = test: Decrease in cyclin E level in human HepG2 cells at 1 uM incubated for 24 hrs Western blot analysis in presence of polyphyllin I; format: functional, cell-based
[28] = Induction of apoptosis in human HepG2 cells assessed as upregulation of p53 mRNA level at 1 uM incubated for 24 hrs by RT-PCR analysis in presence of polyphyllin I; format: functional, cell-based
HepG2 [29] = test: Antimigratory activity in human HepG2 cells at 1 uM after 24 hrs by wound healing assay in presence of polyphyllin I; format: functional, cell-based
HepG2 [30] = test: Induction of chromatin compaction in human HepG2 cells at 0.5 uM after 24 hrs by Hoechst 33258 staining-based fluorescence microscopic analysis in presence of polyphyllin I; format: functional, cell-based
[31] = Cell cycle arrest in human HepG2 cells assessed as accumulation at S phase at 1 uM after 24 hrs by propidium iodide staining-based flow cytometry(reference value: 42.33%); format: functional
HepG2 [32] = test: Induction of cytochrome c release in human HepG2 cells by Western blot analysis in presence of polyphyllin I; format: functional, cell-based
HepG2 [33] = test: Induction of chromatin compaction in human HepG2 cells at 1 uM after 24 hrs by Hoechst 33258 staining-based fluorescence microscopic analysis; format: functional, cell-based
HepG2 [34] = test: Increase in p21 level in human HepG2 cells at 1 uM incubated for 24 hrs by Western blot analysis in presence of polyphyllin I; format: functional, cell-based
HepG2 [35] = test: Decrease in cyclin E mRNA level in human HepG2 cells at 1 uM incubated for 24 hrs by RT-PCR analysis in presence of polyphyllin I relative to formosanin C alone treatment; format: functional, cell-based
HepG2 [36] = test: Induction of Bax translocation from cytosol to mitochondria in human HepG2 cells by Western blot analysis; format: functional, cell-based
[37] = Induction of apoptosis in human HepG2 cells assessed as upregulation of p53 level at 1 uM incubated for 24 hrs by Western blot analysis in presence of polyphyllin I; format: functional, cell-based
HepG2 [38] = test: Induction of cytochrome c release in human HepG2 cells by Western blot analysis; format: functional, cell-based
[39] = Cell cycle arrest in human HepG2 cells assessed as accumulation at G2 phase at 1 uM after 24 hrs by propidium iodide staining-based flow cytometry(reference value: 2.04%); format: functional
[40] = Cytotoxicity against human HepG2 cells assessed as combination index at ED75 using 1:1 compound to polyphyllin I incubated for 24 hrs by MTT assay; format: functional
[41] = Cell cycle arrest in human HepG2 cells assessed as accumulation at G1 phase at 1 uM after 24 hrs by propidium iodide staining-based flow cytometry(reference value: 55.62%); format: functional
[42] = Induction of apoptosis in human HepG2 cells assessed as upregulation of Bax mRNA level at 1 uM incubated for 24 hrs by RT-PCR analysis in presence of polyphyllin I; format: functional, cell-based
HepG2 [43] = test: Induction mitochondrial membrane potential changes in human HepG2 cells at 1 uM after 24 hrs by rhodamine 123 staining-based flow cytometry in presence of polyphyllin I (reference value: 23.8+/-2.3%); format: functional
[44] = Cytotoxicity against human Bel7402 cells assessed as combination index at ED50 using 1:1 compound to polyphyllin I incubated for 24 hrs by MTT assay; format: functional, Bel-7402
HepG2 [45] = test: Induction of nuclear fragmentation in human HepG2 cells at 1 uM after 24 hrs by Hoechst 33258 staining-based fluorescence microscopic analysis; format: functional, cell-based
HepG2 [46] = test: Induction of apoptosis in human HepG2 cells at 1 uM after 24 hrs by propidium iodide staining-based flow cytometry(reference value: 3.01%); format: functional
[47] = Cytotoxicity against human HepG2 cells assessed as combination index at ED30 using 1:1 compound to polyphyllin I incubated for 24 hrs by MTT assay; format: functional

C[C@@H]1CC[C@@]2(OC1)O[C@H]1C[C@H]3[C@@H]4CC=C5C[C@@H](O[C@@H]6O[C@H](CO)[C@@H](O[C@@H]7O[C@@H](C)[C@H](O[C@@H]8O[C@@H](C)[C@H](O)[C@@H](O)[C@H]8O)[C@@H](O)[C@H]7O)[C@H](O)[C@H]6O[C@@H]6O[C@@H](C)[C@H](O)[C@@H](O)[C@H]6O)CC[C@]5(C)[C@H]4CC[C@]3(C)[C@H]1[C@@H]2C [PENNOGENIN RAHAMNOSYL CHACOTRIOSIDE]
Activity (HepG2 [1]): Active
CI [2]: 0.67
Activity (HepG2 [3]): Active
CI [4]: 0.46
Activity (HepG2 [5]): Active
Activity (HepG2 [6]): 32.6%
IC50 [7]: 4.36 µM
Activity (HepG2 [8]): Active
CI [9]: 0.52
Activity (HepG2 [10]): Active
Activity [11]: 2.63%
Activity [12]: 28.7%
CI [13]: 0.58
Activity [14]: Active
Activity (HepG2 [15]): Active
Activity (HepG2 [16]): Active
Activity [17]: Active
Activity [18]: Active
Activity [19]: 68.7%
Activity (HepG2 [20]): Active
Activity (HepG2 [21]): Active
CI [22]: 0.54
Activity [23]: Active
Activity (HepG2 [24]): 7.52%
Activity [25]: Active
IC50 [26]: 3.76 µM
Activity (HepG2 [27]): Active
Activity [28]: Active
Activity (HepG2 [29]): Active
Activity (HepG2 [30]): Active
Activity [31]: 36.4%
Activity (HepG2 [32]): Active
Activity (HepG2 [33]): Active
Activity (HepG2 [34]): Active
Activity (HepG2 [35]): Active
Activity (HepG2 [36]): Active
Activity [37]: Active
Activity (HepG2 [38]): Active
Activity [39]: 2.74%
CI [40]: 0.56
Activity [41]: 60.9%
Activity [42]: Active
Activity (HepG2 [43]): 40.6%
CI [44]: 0.58
Activity (HepG2 [45]): Active
Activity (HepG2 [46]): 6.96%
CI [47]: 0.62
